From the supplement of paper PMC10307832

Legend:
Assay in all cases: relative viability (nuclei count vs DMSO), 5 days (fraction); higher = more cells survive
[1] = compound: C1/C(=C\C2=CC=CS2)/C(=O)/C(=C/C3=CC=CS3)/C1 + N=C(N)NC(=N)NCCc1ccccc1 [Phenformin] (partner 250 µM)
Summary of the method: (§1)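 Dosing by pin tool came one day after lung cancer cell lines were seeded in 1536-well plates, using either one drug or a fixed anchor-drug dose plus five library-drug doses (not always all listed) in √10 steps. After 5 days, nuclei were counted on 4× images. Relative viability is treated-well nuclei count divided by vehicle-well nuclei count, and values are medians of duplicate plates.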

[2] = compound: C1/C(=C\C2=CC=CS2)/C(=O)/C(=C/C3=CC=CS3)/C1 + Nc1ncn([C@H]2C[C@H](O)[C@@H](CO)O2)c(=O)n1 [Decitabine] (partner 2 µM)
Summary of the method: as §1

TPCA-1 + Alpelisib = compound: C1=CC(=CC=C1C2=CC(=C(S2)NC(=O)N)C(=O)N)F [TPCA-1] + Cc1nc(NC(=O)N2CCC[C@H]2C(N)=O)sc1-c1ccnc(C(C)(C)C(F)(F)F)c1 [Alpelisib] (partner 2 µM)
Summary of the method: as §1

Lestaurtinib + Lapatinib = compound: C[C@]12O[C@H](C[C@]1(O)CO)n1c3ccccc3c3c4c(c5c6ccccc6n2c5c31)CNC4=O [Lestaurtinib] + CS(=O)(=O)CCNCc1ccc(-c2ccc3ncnc(Nc4ccc(OCc5cccc(F)c5)c(Cl)c4)c3c2)o1 [Lapatinib] (partner 2 µM)
Summary of the method: as §1

Cell Line: NCI-H838
- relative viability ([1]; first compound 0.2 µM): 0.689
- relative viability ([1]; first compound 0.6325 µM): 0.541
- relative viability ([1]; first compound 2 µM): 0.687
- relative viability ([1]; first compound 6.325 µM): 0.65
- relative viability ([1]; first compound 20 µM): 0.519
- relative viability ([2]; first compound 0.2 µM): 0.42
- relative viability ([2]; first compound 0.6325 µM): 0.473
- relative viability ([2]; first compound 2 µM): 0.468
- relative viability ([2]; first compound 6.325 µM): 0.448
- relative viability ([2]; first compound 20 µM): 0.449
- relative viability (TPCA-1 + Alpelisib; first compound 0.04 µM): 0.981
- relative viability (TPCA-1 + Alpelisib; first compound 0.1265 µM): 0.882
- relative viability (TPCA-1 + Alpelisib; first compound 0.4 µM): 0.957
- relative viability (TPCA-1 + Alpelisib; first compound 1.265 µM): 0.857
- relative viability (TPCA-1 + Alpelisib; first compound 4 µM): 0.716
- relative viability (Lestaurtinib + Lapatinib; first compound 0.005 µM): 1.04
- relative viability (Lestaurtinib + Lapatinib; first compound 0.01581 µM): 0.998
- relative viability (Lestaurtinib + Lapatinib; first compound 0.05 µM): 0.664
- relative viability (Lestaurtinib + Lapatinib; first compound 0.1581 µM): 0.451
- relative viability (Lestaurtinib + Lapatinib; first compound 0.5 µM): 0.132

Cell Line: EBC-1
- relative viability (TPCA-1 + Alpelisib; first compound 0.04 µM): 0.843
- relative viability (TPCA-1 + Alpelisib; first compound 0.1265 µM): 0.77
- relative viability (TPCA-1 + Alpelisib; first compound 0.4 µM): 0.892
- relative viability (TPCA-1 + Alpelisib; first compound 1.265 µM): 0.933
- relative viability (TPCA-1 + Alpelisib; first compound 4 µM): 0.626
- relative viability (Lestaurtinib + Lapatinib; first compound 0.005 µM): 0.164
- relative viability (Lestaurtinib + Lapatinib; first compound 0.01581 µM): 0.236
- relative viability (Lestaurtinib + Lapatinib; first compound 0.05 µM): 0.251
- relative viability (Lestaurtinib + Lapatinib; first compound 0.1581 µM): 0.234
- relative viability (Lestaurtinib + Lapatinib; first compound 0.5 µM): 0.185

Cell Line: NCI-H1650
- relative viability ([1]; first compound 0.2 µM): 0.495
- relative viability ([1]; first compound 0.6325 µM): 0.434
- relative viability ([1]; first compound 2 µM): 0.426
- relative viability ([1]; first compound 6.325 µM): 0.391
- relative viability ([1]; first compound 20 µM): 0.467
- relative viability ([2]; first compound 0.2 µM): 0.484
- relative viability ([2]; first compound 0.6325 µM): 0.374
- relative viability ([2]; first compound 2 µM): 0.442
- relative viability ([2]; first compound 6.325 µM): 0.499
- relative viability ([2]; first compound 20 µM): 0.354
- relative viability (Lestaurtinib + Lapatinib; first compound 0.005 µM): 0.987
- relative viability (Lestaurtinib + Lapatinib; first compound 0.01581 µM): 0.95
- relative viability (Lestaurtinib + Lapatinib; first compound 0.05 µM): 0.817
- relative viability (Lestaurtinib + Lapatinib; first compound 0.1581 µM): 0.512
- relative viability (Lestaurtinib + Lapatinib; first compound 0.5 µM): 0.157

Cell Line: NCI-H1563
- relative viability ([1]; first compound 0.2 µM): 0.672
- relative viability ([1]; first compound 0.6325 µM): 0.66
- relative viability ([1]; first compound 2 µM): 0.655
- relative viability ([1]; first compound 6.325 µM): 0.614
- relative viability ([1]; first compound 20 µM): 0.593
- relative viability (TPCA-1 + Alpelisib; first compound 0.04 µM): 0.976
- relative viability (TPCA-1 + Alpelisib; first compound 0.1265 µM): 0.932
- relative viability (TPCA-1 + Alpelisib; first compound 0.4 µM): 0.897
- relative viability (TPCA-1 + Alpelisib; first compound 1.265 µM): 0.993
- relative viability (TPCA-1 + Alpelisib; first compound 4 µM): 0.911
- relative viability (Lestaurtinib + Lapatinib; first compound 0.005 µM): 1.1
- relative viability (Lestaurtinib + Lapatinib; first compound 0.01581 µM): 0.947
- relative viability (Lestaurtinib + Lapatinib; first compound 0.05 µM): 1.06
- relative viability (Lestaurtinib + Lapatinib; first compound 0.1581 µM): 1.05
- relative viability (Lestaurtinib + Lapatinib; first compound 0.5 µM): 0.776

Cell Line: NCI-H1648
- relative viability ([2]; first compound 0.2 µM): 0.489
- relative viability ([2]; first compound 0.6325 µM): 0.478
- relative viability ([2]; first compound 2 µM): 0.603
- relative viability ([2]; first compound 6.325 µM): 0.45
- relative viability ([2]; first compound 20 µM): 0.432

Cell Line: NCI-H1299
- relative viability (TPCA-1 + Alpelisib; first compound 0.04 µM): 1.11
- relative viability (TPCA-1 + Alpelisib; first compound 0.1265 µM): 1.09
- relative viability (TPCA-1 + Alpelisib; first compound 0.4 µM): 1.05
- relative viability (TPCA-1 + Alpelisib; first compound 1.265 µM): 1.04
- relative viability (TPCA-1 + Alpelisib; first compound 4 µM): 1.1
- relative viability (Lestaurtinib + Lapatinib; first compound 0.005 µM): 0.972
- relative viability (Lestaurtinib + Lapatinib; first compound 0.01581 µM): 1.01
- relative viability (Lestaurtinib + Lapatinib; first compound 0.05 µM): 0.893
- relative viability (Lestaurtinib + Lapatinib; first compound 0.1581 µM): 0.862
- relative viability (Lestaurtinib + Lapatinib; first compound 0.5 µM): 0.479

Cell Line: NCI-H1623
- relative viability ([1]; first compound 0.2 µM): 0.644
- relative viability ([1]; first compound 0.6325 µM): 0.577
- relative viability ([1]; first compound 2 µM): 0.502
- relative viability ([1]; first compound 6.325 µM): 0.599
- relative viability ([1]; first compound 20 µM): 0.59

Cell Line: NCI-H1703
- relative viability (TPCA-1 + Alpelisib; first compound 0.04 µM): 0.336
- relative viability (TPCA-1 + Alpelisib; first compound 0.1265 µM): 0.3
- relative viability (TPCA-1 + Alpelisib; first compound 0.4 µM): 0.304
- relative viability (TPCA-1 + Alpelisib; first compound 1.265 µM): 0.233
- relative viability (TPCA-1 + Alpelisib; first compound 4 µM): 0.207
- relative viability (Lestaurtinib + Lapatinib; first compound 0.005 µM): 1.07
- relative viability (Lestaurtinib + Lapatinib; first compound 0.01581 µM): 1.09
- relative viability (Lestaurtinib + Lapatinib; first compound 0.05 µM): 0.597
- relative viability (Lestaurtinib + Lapatinib; first compound 0.1581 µM): 0.278
- relative viability (Lestaurtinib + Lapatinib; first compound 0.5 µM): 0.123

Cell Line: NCI-H522
- relative viability ([1]; first compound 0.2 µM): 0.677
- relative viability ([1]; first compound 0.6325 µM): 0.649
- relative viability ([1]; first compound 2 µM): 0.662
- relative viability ([1]; first compound 6.325 µM): 0.644
- relative viability ([1]; first compound 20 µM): 0.651
- relative viability ([2]; first compound 0.2 µM): 0.738
- relative viability ([2]; first compound 0.6325 µM): 0.753
- relative viability ([2]; first compound 2 µM): 0.722
- relative viability ([2]; first compound 6.325 µM): 0.673
- relative viability ([2]; first compound 20 µM): 0.604

Cell Line: Calu-6
- relative viability (TPCA-1 + Alpelisib; first compound 0.04 µM): 0.982
- relative viability (TPCA-1 + Alpelisib; first compound 0.1265 µM): 0.988
- relative viability (TPCA-1 + Alpelisib; first compound 0.4 µM): 1.04
- relative viability (TPCA-1 + Alpelisib; first compound 1.265 µM): 0.85
- relative viability (TPCA-1 + Alpelisib; first compound 4 µM): 0.539
- relative viability (Lestaurtinib + Lapatinib; first compound 0.005 µM): 1.09
- relative viability (Lestaurtinib + Lapatinib; first compound 0.01581 µM): 1.2
- relative viability (Lestaurtinib + Lapatinib; first compound 0.05 µM): 0.557
- relative viability (Lestaurtinib + Lapatinib; first compound 0.1581 µM): 0.499
- relative viability (Lestaurtinib + Lapatinib; first compound 0.5 µM): 0.208

Cell Line: ChaGo-K-1
- relative viability ([1]; first compound 0.2 µM): 0.517
- relative viability ([1]; first compound 0.6325 µM): 0.493
- relative viability ([1]; first compound 2 µM): 0.459
- relative viability ([1]; first compound 6.325 µM): 0.3
- relative viability ([1]; first compound 20 µM): 0.271
- relative viability ([2]; first compound 0.2 µM): 0.528
- relative viability ([2]; first compound 0.6325 µM): 0.394
- relative viability ([2]; first compound 2 µM): 0.494
- relative viability ([2]; first compound 6.325 µM): 0.436
- relative viability ([2]; first compound 20 µM): 0.242

Cell Line: LCLC-103H
- relative viability ([1]; first compound 0.2 µM): 0.326
- relative viability ([1]; first compound 0.6325 µM): 0.329
- relative viability ([1]; first compound 2 µM): 0.361
- relative viability ([1]; first compound 6.325 µM): 0.288
- relative viability ([1]; first compound 20 µM): 0.356
- relative viability ([2]; first compound 0.2 µM): 0.803
- relative viability ([2]; first compound 0.6325 µM): 0.747
- relative viability ([2]; first compound 2 µM): 0.77
- relative viability ([2]; first compound 6.325 µM): 0.554
- relative viability ([2]; first compound 20 µM): 0.742
- relative viability (TPCA-1 + Alpelisib; first compound 0.04 µM): 1.06
- relative viability (TPCA-1 + Alpelisib; first compound 0.1265 µM): 0.901
- relative viability (TPCA-1 + Alpelisib; first compound 0.4 µM): 0.992
- relative viability (TPCA-1 + Alpelisib; first compound 1.265 µM): 1
- relative viability (TPCA-1 + Alpelisib; first compound 4 µM): 1.03

Cell Line: NCI-H441
- relative viability ([1]; first compound 0.2 µM): 0.826
- relative viability ([1]; first compound 0.6325 µM): 1.01
- relative viability ([1]; first compound 2 µM): 0.955
- relative viability ([1]; first compound 6.325 µM): 0.77
- relative viability ([1]; first compound 20 µM): 0.772
- relative viability ([2]; first compound 0.2 µM): 0.265
- relative viability ([2]; first compound 0.6325 µM): 0.267
- relative viability ([2]; first compound 2 µM): 0.247
- relative viability ([2]; first compound 6.325 µM): 0.234
- relative viability ([2]; first compound 20 µM): 0.414
- relative viability (TPCA-1 + Alpelisib; first compound 0.04 µM): 0.903
- relative viability (TPCA-1 + Alpelisib; first compound 0.1265 µM): 0.497
- relative viability (TPCA-1 + Alpelisib; first compound 0.4 µM): 0.611
- relative viability (TPCA-1 + Alpelisib; first compound 1.265 µM): 0.439
- relative viability (TPCA-1 + Alpelisib; first compound 4 µM): 0.327
